Key:
Format in all cases: in vivo
[1] = system: sedge, umbrella (small-flower umbrella sedge, Cyperus difformis); assay: Test B flooded paddy test, plant response rating; conditions: 250 g ai/ha; Flood; scale of 0 to 100 where 0 is no effect and 100 is complete control; 13 to 15 days
Method in brief: (§1)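 In-water treatment: compound dosed into 3 cm flood over soil, water level unchanged throughout. Controls run alongside; visual assessment at day 13–15.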

[2] = system: rice (Oryza sativa); assay: Test B flooded paddy test, plant response rating; conditions: 250 g ai/ha; Flood; scale of 0 to 100 where 0 is no effect and 100 is complete control; 13 to 15 days
Method in brief: as §1

[3] = system: barnyardgrass (Echinochloa crus-galli); assay: Test B flooded paddy test, plant response rating; conditions: 250 g ai/ha; Flood; scale of 0 to 100 where 0 is no effect and 100 is complete control; 13 to 15 days
Method in brief: as §1

[4] = system: surinam grass (Brachiaria decumbens); assay: Test C preemergence, plant response rating
[5] = system: wild poinsettia (Euphorbia heterophylla); assay: Test C preemergence, plant response rating
[6] = system: soybean (Glycine max); assay: Test C preemergence, plant response rating; conditions: Preemergence
Method in brief: (§2)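 Pre-emergence: seeds sown in loam soil–sand blend or silt loam and sprayed with test chemicals in a non-phytotoxic solvent mixture with surfactant. Post-emergence: plants 2 to 18 cm (1- to 4-leaf stage) in peat-based potting medium, same formulation. Greenhouse 13 to 15 d; visual rating 0 (no effect) to 100 (complete control) versus controls.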

[7] = system: blackgrass (Alopecurus myosuroides); assay: Test C preemergence, plant response rating; conditions: Preemergence
Method in brief: as §2

[8] = system: lambsquarters (Chenopodium album); assay: Test C preemergence, plant response rating; conditions: Preemergence
Method in brief: as §2

[9] = system: ryegrass, Italian (Italian ryegrass, Lolium multiflorum); assay: Test C preemergence, plant response rating; conditions: Preemergence
Method in brief: as §2

[10] = system: wheat (winter wheat, Triticum aestivum); assay: Test C preemergence, plant response rating; conditions: Preemergence
Method in brief: as §2

[11] = system: waterhemp (common waterhemp, Amaranthus rudis); assay: Test C preemergence, plant response rating; conditions: Preemergence
Method in brief: as §2

[12] = system: velvetleaf (Abutilon theophrasti); assay: Test C preemergence, plant response rating; conditions: Preemergence
Method in brief: as §2

[13] = system: crabgrass, large (large crabgrass, Digitaria sanguinalis); assay: Test C preemergence, plant response rating; conditions: Preemergence
Method in brief: as §2

[14] = system: nutsedge, yellow (yellow nutsedge, Cyperus esculentus); assay: Test C preemergence, plant response rating; conditions: Preemergence
Method in brief: as §2

[15] = system: morningglory (Ipomoea coccinea); assay: Test C preemergence, plant response rating; conditions: Preemergence
Method in brief: as §2

[16] = system: corn (Zea mays); assay: Test C preemergence, plant response rating; conditions: Preemergence
Method in brief: as §2

[17] = system: oilseed rape (Brassica napus); assay: Test C preemergence, plant response rating; conditions: Preemergence
Method in brief: as §2

[18] = system: ragweed (common ragweed, Ambrosia elatior); assay: Test C preemergence, plant response rating; conditions: Preemergence
Method in brief: as §2

[19] = system: foxtail, giant (giant foxtail, Setaria faberii); assay: Test C preemergence, plant response rating; conditions: Preemergence
Method in brief: as §2

[20] = system: oat, wild (wild oat Avena fatua); assay: Test C preemergence, plant response rating

In the case of `N#CC(CCCC(F)(F)F)c1ccccc1Oc1ncc(Cl)cn1` (centres unmarked) [Compound 144], the “Plant response rating, Sedge, Umbrella” value [1] is reported as 100, the “Plant response rating, Rice” value [2] is reported as 35 and the “Plant response rating, Barnyardgrass” value [3] is reported as 70. For the same compound, the “Plant response rating, Surinam Grass” value ([4]; 31 g ai/ha, scale 0 to 100) was 5, the “Plant response rating, Surinam Grass” value ([4]; 62 g ai/ha, scale 0 to 100) was 70 and the “Plant response rating, Surinam Grass” value ([4]; 125 g ai/ha, scale of 0 to 100) was 60. For the same compound, the “Plant response rating, Poinsettia, Wild” value ([5]; 31 g ai/ha, scale 0 to 100) was 5, the “Plant response rating, Poinsettia, Wild” value ([5]; 62 g ai/ha, scale 0 to 100) was 40 and the “Plant response rating, Poinsettia, Wild” value ([5]; 125 g ai/ha, scale of 0 to 100) was 80. The “Plant response rating, Soybean” value ([6]; 125 g ai/ha, scale of 0 to 100) was 60, the “Plant response rating, Soybean” value ([6]; 31 g ai/ha, scale 0 to 100) was 0 and the “Plant response rating, Soybean” value ([6]; 62 g ai/ha, scale 0 to 100) was 30. The “Plant response rating, Blackgrass” value ([7]; 125 g ai/ha, scale of 0 to 100) was 30, the “Plant response rating, Blackgrass” value ([7]; 16 g ai/ha, scale 0 to 100) was 5 and the “Plant response rating, Blackgrass” value ([7]; 31 g ai/ha, scale 0 to 100) was 10. For the same compound, the “Plant response rating, Blackgrass” value ([7]; 62 g ai/ha, scale 0 to 100) was 40, the “Plant response rating, Lambsquarters” value ([8]; 125 g ai/ha, scale of 0 to 100) was 75 and the “Plant response rating, Lambsquarters” value ([8]; 31 g ai/ha, scale 0 to 100) was 40. The “Plant response rating, Lambsquarters” value ([8]; 62 g ai/ha, scale 0 to 100) was 65, the “Plant response rating, Ryegrass, Italian” value ([9]; 125 g ai/ha, scale of 0 to 100) was 60 and the “Plant response rating, Ryegrass, Italian” value ([9]; 31 g ai/ha, scale 0 to 100) was 0. For the same compound, the “Plant response rating, Ryegrass, Italian” value ([9]; 62 g ai/ha, scale 0 to 100) was 0, the “Plant response rating, Wheat” value ([10]; 125 g ai/ha, scale of 0 to 100) was 5 and the “Plant response rating, Wheat” value ([10]; 62 g ai/ha, scale 0 to 100) was 0. For the same compound, the “Plant response rating, Waterhemp” value ([11]; 125 g ai/ha, scale of 0 to 100) was 100, the “Plant response rating, Waterhemp” value ([11]; 31 g ai/ha, scale 0 to 100) was 98 and the “Plant response rating, Waterhemp” value ([11]; 62 g ai/ha, scale 0 to 100) was 98. For the same compound, the “Plant response rating, Velvetleaf” value ([12]; 125 g ai/ha, scale of 0 to 100) was 45, the “Plant response rating, Velvetleaf” value ([12]; 31 g ai/ha, scale 0 to 100) was 0 and the “Plant response rating, Velvetleaf” value ([12]; 62 g ai/ha, scale 0 to 100) was 15. The “Plant response rating, Crabgrass, Large” value ([13]; 125 g ai/ha, scale of 0 to 100) was 100, the “Plant response rating, Crabgrass, Large” value ([13]; 16 g ai/ha, scale 0 to 100) was 85 and the “Plant response rating, Crabgrass, Large” value ([13]; 31 g ai/ha, scale 0 to 100) was 98. For the same compound, the “Plant response rating, Crabgrass, Large” value ([13]; 62 g ai/ha, scale 0 to 100) was 100, the “Plant response rating, Nutsedge, Yellow” value ([14]; 125 g ai/ha, scale of 0 to 100) was 70 and the “Plant response rating, Nutsedge, Yellow” value ([14]; 31 g ai/ha, scale 0 to 100) was 20. For the same compound, the “Plant response rating, Nutsedge, Yellow” value ([14]; 62 g ai/ha, scale 0 to 100) was 60, the “Plant response rating, Morningglory” value ([15]; 125 g ai/ha, scale of 0 to 100) was 20 and the “Plant response rating, Morningglory” value ([15]; 31 g ai/ha, scale 0 to 100) was 0. The “Plant response rating, Morningglory” value ([15]; 62 g ai/ha, scale 0 to 100) was 10, the “Plant response rating, Corn” value ([16]; 125 g ai/ha, scale of 0 to 100) was 30 and the “Plant response rating, Corn” value ([16]; 16 g ai/ha, scale 0 to 100) was 0. The “Plant response rating, Corn” value ([16]; 31 g ai/ha, scale 0 to 100) was 0, the “Plant response rating, Corn” value ([16]; 62 g ai/ha, scale 0 to 100) was 5 and the “Plant response rating, Oilseed Rape” value ([17]; 125 g ai/ha, scale of 0 to 100) was 90. For the same compound, the “Plant response rating, Oilseed Rape” value ([17]; 31 g ai/ha, scale 0 to 100) was 0, the “Plant response rating, Oilseed Rape” value ([17]; 62 g ai/ha, scale 0 to 100) was 5 and the “Plant response rating, Ragweed” value ([18]; 125 g ai/ha, scale of 0 to 100) was 10. For the same compound, the “Plant response rating, Ragweed” value ([18]; 31 g ai/ha, scale 0 to 100) was 0, the “Plant response rating, Ragweed” value ([18]; 62 g ai/ha, scale 0 to 100) was 0 and the “Plant response rating, Foxtail, Giant” value ([19]; 125 g ai/ha, scale of 0 to 100) was 100. The “Plant response rating, Foxtail, Giant” value ([19]; 31 g ai/ha, scale 0 to 100) was 85, the “Plant response rating, Foxtail, Giant” value ([19]; 62 g ai/ha, scale 0 to 100) was 100 and the “Plant response rating, Oat, Wild” value ([20]; 31 g ai/ha, scale 0 to 100) was 5. The “Plant response rating, Oat, Wild” value ([20]; 62 g ai/ha, scale 0 to 100) was 10 and the “Plant response rating, Oat, Wild” value ([20]; 125 g ai/ha, scale of 0 to 100) was 10.
